According to US10111428B2, “Nematocide containing lactonic ring and preparation method and application thereof” (priority 2015, dated 2018):
Values after ≈ are worked out from the molar mass of the structure shown. Like-named read-outs stand apart in the source and are kept apart here.

How the values were obtained:
[1] = tested on: Nematode eggs; test: Plant pathogenic nematode inhibition test by dipping: nematode egg hatch inhibition (NY/T 1154.5-2006); format: in vivo
Procedure: A plant pathogenic nematode inhibition test is conducted by dipping with the compounds in Table 1; and by referring to NY/T 1154.5-2006 (Part 5: Dipping Test for Insecticide Ovicidal Activity), the nematode egg hatch inhibition activity of the compounds is tested, as shown in Table 2: […]

[2] = tested on: Earthworm; test: Earthworm toxicity test (Test Guidelines on Environmental Safety Assessment for Chemical Pesticides); format: in vivo; conditions: cell adds 'low toxicity'
Procedure: (§1) According to the earthworm and edaphon toxicity test procedures as prescribed in the Test Guidelines on Environmental Safety Assessment for Chemical Pesticides, earthworm and edaphon toxicity tests are conducted on compounds 1 to 60 from Table 1. The simulative usual dose of pesticide in the edaphon test is 40 ppm.

[3] = tested on: Edaphon; test: Edaphon toxicity test (Test Guidelines on Environmental Safety Assessment for Chemical Pesticides)
Procedure: as §1

[4] = tested on: Nematode J2; test: Plant pathogenic nematode inhibition test by dipping: second-stage juveniles; format: in vivo
[5] = 15 d, 100 times of usual dose (simulative usual dose 40 ppm), cell adds 'low toxicity'
[6] = Test object: nematode eggs, dipping
[7] = Test object: nematode J2 (second-stage juveniles), dipping

Structure (SMILES) | LC50 ([1]; in vivo) [µg/mL] | Earthworm Toxicity LC50 (14 d) [2] | Edaphon Toxicity (15 d) (Inhibition ratio when added amount is 100 times of usual dose) [3, 5] | LC50 ([4]; in vivo) [µg/mL] | LC50 [1, 6] [µg/mL] | LC50 [4, 7] [µg/mL] | Edaphon Toxicity (15 d) (Inhibition ratio when added amount is 100 times of usual dose) [3]
O=C1CC(C(=O)OCCC(F)=C(F)F)C(c2ccccc2F)O1 (centres unmarked) [Compound 19] | 15.21 (≈ 45.8 µM) | >10, low toxicity mg/L | <50%, low toxicity | 17.24 (≈ 51.9 µM) | – | – | –
O=C1CC(C(=O)OCCC(F)=C(F)F)C(c2ccc(F)cc2)O1 (centres unmarked) [Compound 20] | 10.143 (≈ 30.5 µM) | >10, low toxicity mg/L | <50%, low toxicity | 12.532 (≈ 37.7 µM) | – | – | –
O=C1CC(C(=O)OCCC(F)=C(F)F)C(c2ccc(Cl)cc2F)O1 (centres unmarked) [Compound 21] | 11.98 (≈ 32.7 µM) | >10, low toxicity mg/L | <50%, low toxicity | 13.74 (≈ 37.5 µM) | – | – | –
O=C1CC(C(=O)OCCC(F)=C(F)F)C(c2cc(F)cc(Br)c2)O1 (centres unmarked) [Compound 22] | 9.57 (≈ 23.3 µM) | >10, low toxicity mg/L | <50%, low toxicity | 10.85 (≈ 26.4 µM) | – | – | –
O=C1CC(C(=O)OCCC(F)=C(F)F)C(c2ccc(F)c(Cl)c2)O1 (centres unmarked) [Compound 23] | 10.23 (≈ 27.9 µM) | >10, low toxicity mg/L | <50%, low toxicity | 11.24 (≈ 30.7 µM) | – | – | –
O=C1CC(C(=O)OCCC(F)=C(F)F)C(c2cc(F)cc(Cl)c2)O1 (centres unmarked) [Compound 24] | – | >10, low toxicity mg/L | <50%, low toxicity | – | 10.91 (≈ 29.8 µM) | 12.24 (≈ 33.4 µM) | –
O=C1CC(C(=O)OCCC(F)=C(F)F)C(c2ccc(Br)cc2F)O1 (centres unmarked) [Compound 25] | – | >10, low toxicity mg/L | <50%, low toxicity | – | 13.91 (≈ 33.8 µM) | 15.74 (≈ 38.3 µM) | –
O=C1CC(C(=O)OCCC(F)=C(F)F)C(c2cccc(F)c2)O1 (centres unmarked) [Compound 27] | – | >10, low toxicity mg/L | – | – | 7.85 (≈ 23.6 µM) | 8.91 (≈ 26.8 µM) | <50%, low toxicity
O=C1CC(C(=O)OCCC(F)=C(F)F)C(c2cc(F)ccc2F)O1 (centres unmarked) [Compound 28] | 13.23 (≈ 37.8 µM) | >10, low toxicity mg/L | <50%, low toxicity | 15.07 (≈ 43 µM) | – | – | –
O=C1CC(C(=O)OCCC(F)=C(F)F)C(c2c(F)c(F)c(F)c(F)c2F)O1 (centres unmarked) [Compound 29] | 12.24 (≈ 30.3 µM) | >10, low toxicity mg/L | <50%, low toxicity | 13.86 (≈ 34.3 µM) | – | – | –
O=C1CC(C(=O)OCCC(F)=C(F)F)C(c2cc(F)c(F)c(F)c2)O1 (centres unmarked) [Compound 30] | 9.73 (≈ 26.4 µM) | >10, low toxicity mg/L | <50%, low toxicity | 10.96 (≈ 29.8 µM) | – | – | –
O=C1CC(C(=O)OCCC(F)=C(F)F)C(c2c(F)cccc2C(F)(F)F)O1 (centres unmarked) [Compound 31] | 9.60 (≈ 24 µM) | >10, low toxicity mg/L | <50%, low toxicity | 10.07 (≈ 25.2 µM) | – | – | –
O=C1CC(C(=O)OCCC(F)=C(F)F)C(c2ccc(C(F)(F)F)cc2F)O1 (centres unmarked) [Compound 32] | 12.14 (≈ 30.3 µM) | >10, low toxicity mg/L | <50%, low toxicity | 13.23 (≈ 33.1 µM) | – | – | –
COc1c(F)cc(C2OC(=O)CC2C(=O)OCCC(F)=C(F)F)cc1F (centres unmarked) [Compound 33] | 12.08 (≈ 31.8 µM) | >10, low toxicity mg/L | <50%, low toxicity | 13.37 (≈ 35.2 µM) | – | – | –
COc1ccccc1C1OC(=O)CC1C(=O)OCCC=C(F)F (centres unmarked) [Compound 34] | – | >10, low toxicity mg/L | <50%, low toxicity | – | 12.42 (≈ 38.1 µM) | 13.10 (≈ 40.1 µM) | –
COc1ccccc1C1OC(=O)CC1C(=O)OCCC(F)=C(F)F (centres unmarked) [Compound 35] | 10.84 (≈ 31.5 µM) | >10, low toxicity mg/L | <50%, low toxicity | 11.67 (≈ 33.9 µM) | – | – | –
COc1cccc(C2OC(=O)CC2C(=O)OCCC=C(F)F)c1 (centres unmarked) [Compound 36] | 11.24 (≈ 34.4 µM) | >10, low toxicity mg/L | <50%, low toxicity | 12.64 (≈ 38.7 µM) | – | – | –
